Holding throughout (type): functional
Assay [1] has as its system Bacillus subtilis. Kind of assay: Antimicrobial activity against at Bacillus subtilis at 25 ug/ml by cup plate method. Conditions: read-out: IZ.
Assay [2] concerns Rattus norvegicus. Kind of assay: Anti-inflammatory activity in Rattus norvegicus Wistar albino (rat) assessed as protection against carrageenan-induced paw edema at 50 mg/kg after 2 hr. (The carrageenan paw model is a standard test of acute inflammation.)
The subject of assay [3] is Mus musculus. Kind of assay: Analgesic activity in Mus musculus Swiss albino (mouse) assessed as increase in reaction time of paw licking or jump response at 50 mg/kg, po after 30 min by hot plate method.
In assay [4] the test system is Rattus norvegicus. Kind of assay: Anti-inflammatory activity in Rattus norvegicus Wistar albino (rat) assessed as protection against carrageenan-induced paw edema at 50 mg/kg after 30 min.
Assay [5] concerns Escherichia coli. Kind of assay: Antimicrobial activity against at Escherichia coli at 50 ug/ml by cup-plate method. Conditions: read-out: IZ.
Assay [6] has as its system Aspergillus niger. Kind of assay: Antimicrobial activity against at Aspergillus niger at 25 ug/ml by cup-plate method. The settings on record: read-out: IZ.
The subject of assay [7] is Rattus norvegicus. Kind of assay: Anti-inflammatory activity in Rattus norvegicus Wistar albino (rat) assessed as protection against carrageenan-induced paw edema at 50 mg/kg after 60 min.
For assay [8], the system named is Escherichia coli. Kind of assay: Antimicrobial activity against at Escherichia coli at 25 ug/ml by cup-plate method. Conditions: read-out: IZ.
In assay [9] the test system is Aspergillus niger. Kind of assay: Antimicrobial activity against at Aspergillus niger at 50 ug/ml by cup-plate method. The settings on record: read-out: IZ.
For assay [10], the system named is Bacillus subtilis. Kind of assay: Antimicrobial activity against at Bacillus subtilis at 100 ug/ml by cup plate method. The settings on record: read-out: IZ.
For assay [11], the system named is Bacillus subtilis. Kind of assay: Antimicrobial activity against at Bacillus subtilis at 50 ug/ml by cup plate method. The settings on record: read-out: IZ.
Assay [12] concerns Mus musculus. Kind of assay: Analgesic activity in Mus musculus Swiss albino (mouse) assessed as increase in reaction time of paw licking or jump response at 50 mg/kg, po after 60 min by hot plate method. (In hot-plate and tail-flick tests a longer latency is read as antinociception.)
The subject of assay [13] is Aspergillus niger. Kind of assay: Antimicrobial activity against at Aspergillus niger at 100 ug/ml by cup-plate method. The settings on record: read-out: IZ.
Assay [14] deals with Rattus norvegicus. Kind of assay: Anti-inflammatory activity in Rattus norvegicus Wistar albino (rat) assessed as protection against carrageenan-induced paw edema at 50 mg/kg after 3 hr.
Assay [15] relates to Rattus norvegicus. Kind of assay: Anti-inflammatory activity in Rattus norvegicus Wistar albino (rat) assessed as protection against carrageenan-induced paw edema at 50 mg/kg after 90 min.
For assay [16], the system named is Penicillium chrysogenum. Kind of assay: Antimicrobial activity against at Penicillium chrysogenum at 100 ug/ml by cup-plate method. The settings on record: read-out: IZ.
The test system of assay [17] is Mus musculus. Kind of assay: Analgesic activity in Mus musculus Swiss albino (mouse) assessed as increase in reaction time of paw licking or jump response at 50 mg/kg, po after 90 min by hot plate method.
For assay [18], the system named is Penicillium chrysogenum. Kind of assay: Antimicrobial activity against at Penicillium chrysogenum at 25 ug/ml by cup-plate method. Conditions: read-out: IZ.
Assay [19] has as its system Penicillium chrysogenum. Kind of assay: Antimicrobial activity against at Penicillium chrysogenum at 50 ug/ml by cup-plate method. The settings on record: read-out: IZ.
In assay [20] the test system is Escherichia coli. Kind of assay: Antimicrobial activity against at Escherichia coli at 100 ug/ml by cup-plate method. The settings on record: read-out: IZ.
The test system of assay [21] is Mus musculus. Kind of assay: Analgesic activity in Mus musculus Swiss albino (mouse) assessed as increase in reaction time of paw licking or jump response at 20 mg/kg, po after 60 min by hot plate method.
Assay [22] relates to Mus musculus. Kind of assay: Analgesic activity in Mus musculus Swiss albino (mouse) assessed as increase in reaction time of paw licking or jump response at 20 mg/kg, po after 90 min by hot plate method.

Consider `O=C1c2ccccc2-c2noc(-c3ccccc3)c21`, for which the zone of inhibition at 25 µg/mL in the assay on Bacillus subtilis [1] was found to be 9 mm; with Aspergillus niger [6], 9.75 mm; in the assay on Escherichia coli [8], 9.79 mm; in the assay on Penicillium chrysogenum [18] it was 6 mm. Moreover, the Activity was 28.42% with Rattus norvegicus [2]; 6.23% with Mus musculus [3]; 21.44% in the assay with Rattus norvegicus [4]; 27.61% in the assay on Rattus norvegicus [7]; 12.03% in the assay with Mus musculus [12]; 26.21% in the assay with Rattus norvegicus [14]. Also, the Activity came out at 30.19% in the assay with Rattus norvegicus [15] and 17.23% with Mus musculus [17]. Further, the zone of inhibition at 50 µg/mL worked out at 16.9 mm with Escherichia coli [5], 16.8 mm with Aspergillus niger [9], 12 mm with Bacillus subtilis [11] and 12.8 mm in the assay on Penicillium chrysogenum [19]. In addition, the zone of inhibition at 100 µg/mL with Bacillus subtilis [10] turned out to be 16.3 mm; in the assay on Aspergillus niger [13], 22.8 mm; in the assay on Penicillium chrysogenum [16] it was 19.5 mm; in the assay with Escherichia coli [20], 30.9 mm.

Take `O=C1c2ccccc2-c2noc(-c3ccccc3[N+](=O)[O-])c21`: the zone of inhibition at 25 µg/mL with Bacillus subtilis [1] turned out to be 4.25 mm; in the assay on Escherichia coli [8], 5.25 mm; in the assay with Penicillium chrysogenum [18] it was 5.25 mm. Moreover, the Activity was found to be 8.01% with Rattus norvegicus [2]; 5.24% with Mus musculus [3]; 7.22% with Rattus norvegicus [4]; 6.33% with Rattus norvegicus [7]; 7.62% with Mus musculus [12]; 9.52% in the assay with Rattus norvegicus [14]. Besides, the Activity is 7.11% in the assay with Rattus norvegicus [15] and 9.84% in the assay with Mus musculus [17]. The zone of inhibition at 50 µg/mL turned out to be 12.8 mm with Escherichia coli [5], 7.25 mm in the assay with Aspergillus niger [9], 7.5 mm in the assay with Bacillus subtilis [11] and 8.25 mm in the assay on Penicillium chrysogenum [19]. The zone of inhibition at 100 µg/mL with Bacillus subtilis [10] amounted to 14.2 mm; in the assay with Aspergillus niger [13] it was 19 mm; in the assay with Penicillium chrysogenum [16], 14.2 mm; in the assay with Escherichia coli [20], 19.8 mm.

With `O=C1c2ccccc2-c2noc(-c3ccc([N+](=O)[O-])cc3)c21`, the zone of inhibition at 25 µg/mL is 4.5 mm in the assay on Bacillus subtilis [1], 4.75 mm with Aspergillus niger [6], 5.5 mm in the assay with Escherichia coli [8] and 4.5 mm in the assay on Penicillium chrysogenum [18]. The Activity with Rattus norvegicus [2] is 16.21%; in the assay on Mus musculus [3], 3.95%; in the assay on Rattus norvegicus [4], 10.92%; with Rattus norvegicus [7], 13.35%; with Mus musculus [12], 5.91%; in the assay on Rattus norvegicus [14], 17.21%. The Activity with Rattus norvegicus [15] is listed as 18.51%; in the assay with Mus musculus [17] it was 8.55%. Further, the zone of inhibition at 50 µg/mL is 13 mm in the assay on Escherichia coli [5], 13.5 mm in the assay with Aspergillus niger [9], 6.75 mm in the assay with Bacillus subtilis [11] and 11 mm with Penicillium chrysogenum [19]. In addition, the zone of inhibition at 100 µg/mL in the assay on Bacillus subtilis [10] stood at 14.5 mm; with Aspergillus niger [13] it was 16.2 mm; in the assay with Penicillium chrysogenum [16], 15 mm; in the assay with Escherichia coli [20] it was 18.5 mm.

Regarding `COc1cccc(-c2onc3c2C(=O)c2ccccc2-3)c1O`, the zone of inhibition at 25 µg/mL amounted to 6.75 mm in the assay on Bacillus subtilis [1], 10.8 mm with Aspergillus niger [6], 10.2 mm with Escherichia coli [8] and 5.35 mm with Penicillium chrysogenum [18]. Further, the Activity in the assay with Rattus norvegicus [2] is 34.32%; in the assay on Mus musculus [3], 6%; in the assay with Rattus norvegicus [4], 25.44%; with Rattus norvegicus [7], 32.22%; in the assay with Mus musculus [12], 11.44%; with Rattus norvegicus [14], 30.41%. The Activity is on record as 37.62% in the assay with Rattus norvegicus [15] and 16.43% in the assay on Mus musculus [17]. Moreover, the results for the zone of inhibition at 50 µg/mL in the assay with Escherichia coli [5], with Aspergillus niger [9] and in the assay with Penicillium chrysogenum [19] were 14.7 mm, 16.5 mm and 10.5 mm, respectively. The zone of inhibition at 100 µg/mL in the assay on Bacillus subtilis [10] was 16 mm; in the assay on Aspergillus niger [13], 29.6 mm; with Penicillium chrysogenum [16], 16.6 mm; in the assay with Escherichia coli [20] it was 21 mm.

In the case of `O=C([O-])Cc1ccccc1Nc1c(Cl)cccc1Cl.[Na+]` [DICLOFENAC SODIUM], the results for the Activity with Mus musculus [21] and in the assay on Mus musculus [22] were 27.59% and 34.62%, respectively.

Values taken from ChEMBL document CHEMBL3046232, “Synthesis, pharmacological evaluation and molecular docking studies of indanone derivatives” (2012).
